Reference: publication PMC10299727, “Identification and Isolation of α-Glucosidase Inhibitors from Siraitia grosvenorii Roots Using Bio-Affinity Ultrafiltration and Comprehensive Chromatography” (International Journal of Molecular Sciences, 2023)
Where “and” joins values, the source holds several entries; their conditions need not be identical. Equal entries are not always repeated. Where two headings read alike, the source gives them in different places.

Experiments:
α-glucosidase [1] = target: T1, α-glucosidase (Saccharomyces cerevisiae, UniProt P53341); assay: α-glucosidase inhibitory assay (pNPG substrate, absorbance at 405 nm); assay type: biochemical
T1 construct: purchased Sigma-Aldrich (Shanghai, China) G5003-100UN
T1 sequence (P53341 whole entry): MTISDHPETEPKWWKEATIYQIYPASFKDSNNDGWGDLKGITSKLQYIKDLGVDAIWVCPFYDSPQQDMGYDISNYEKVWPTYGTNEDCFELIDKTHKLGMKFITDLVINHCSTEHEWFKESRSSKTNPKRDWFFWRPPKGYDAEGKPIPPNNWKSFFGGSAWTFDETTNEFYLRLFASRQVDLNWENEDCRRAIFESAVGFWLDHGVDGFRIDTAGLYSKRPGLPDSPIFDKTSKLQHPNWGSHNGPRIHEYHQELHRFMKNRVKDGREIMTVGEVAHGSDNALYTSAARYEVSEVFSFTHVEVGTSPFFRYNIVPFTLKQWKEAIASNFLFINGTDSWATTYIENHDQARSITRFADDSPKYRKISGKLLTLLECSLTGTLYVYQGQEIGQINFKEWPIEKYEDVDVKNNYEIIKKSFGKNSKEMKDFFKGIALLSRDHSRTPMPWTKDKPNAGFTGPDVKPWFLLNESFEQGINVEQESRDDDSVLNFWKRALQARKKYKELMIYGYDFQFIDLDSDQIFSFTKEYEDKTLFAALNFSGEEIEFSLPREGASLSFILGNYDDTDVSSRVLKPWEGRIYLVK
Procedure: The α-glucosidase inhibitory activity of the S. grosvenorii root extracts was determined using a method mentioned previously, with some modifications to it. Briefly, the sample was dissolved in PBS containing 10% dimethyl sulfoxide. A mixture of the tested sample (50 μL, different concentrations) and α-glucosidase (20 μL, 0.2 U/mL) was placed in a 96-well microplate and incubated at 37 °C for 5 min. Next, 20 μL pNPG (1 mM) was added, and the mixture was further reacted for 30 min at 37 °C and terminated through the addition of […] solution (50 μL, […]). The percentage inhibition of α-glucosidase was determined by measuring the absorbance of the mixture at 405 nm and calculated by Equation (1):Inhibition (%) = [1 − (Ainhibitor − Ablank inhibitor)/(Acontrol − Acontrol blank)] × 100(1) where Ainhibitor, Ablank inhibitor, Acontrol, Acontrol blank are the absorbance values of the potential inhibitor and α-glucosidase, only the potential inhibitor without α-glucosidase, only α-glucosidase, and PBS buffer, respectively.

α-glucosidase [2] = target: T1, α-glucosidase; assay: Affinity ultrafiltration coupled with HPLC (UF-HPLC), specific binding factor; conditions: peaks of SGR2 (10 mg/mL) incubated with α-glucosidase; active vs denatured enzyme
Procedure: Affinity UF was performed as previously described, with slight modifications. Briefly, a PBS solution of SGR2 (10 mg/mL, 800 μL) was mixed with α-glucosidase (1 U/mL, 400 μL) and incubated at 37 °C for 45 min. Next, the mixture was centrifuged at 10,000 rpm for 10 min using a UF membrane with a 10 kDa molecular weight cutoff, to collect the active component and α-glucosidase complexes. The complexes were washed 3 times with 600 μL of PBS (0.1 M, pH 7.2) to remove unbound compounds. A solution of 70% methanol (200 μL) was added to the residue and incubated at 4 °C for 20 min to release the bound compounds. Then, the solution was collected and concentrated to a dry state. Subsequently, the dry residue was further dissolved with 0.2 mL methanol and subjected to HPLC analysis. As a negative control, α-glucosidase was inactivated at 100 °C in a water bath for 10 min. […] The specific binding factors were calculated according to Equation (2):Specific binding factor (%) = (Aa − Ab)/Ac × 100%(2) where, Aa is the peak area of the experiment with active α-glucosidase, Ab is the peak area of the control group with denatured α-glucosidase, and Ac is the peak area of the extract.

Compound | inhibition at 1000 µg/mL (α-glucosidase [1]) [%] | IC50 (α-glucosidase [1]; read-out: IC50) [µM] | Specific Binding Factors Mean ± SD (n = 3) (α-glucosidase [2]) | Inhibition (%) (α-glucosidase [1]; concentration of 1.0 mg/mL compound) | IC50 (α-glucosidase [1]) [µM]
CC(=CCCC(C)C1C(O)CC2(C)C3CCC4=C(C)C(=O)CCC4C3C(=O)CC12C)C(=O)OC1OC(COC2OC(CO)C(O)C(O)C2O)C(O)C(O)C1O (centres unmarked) [Compound 7, Siraitic acid II E] | 58.5 ± 1.19 | 1207 ± 5.49 | 3.46 ± 1.03% | – | –
CC(=CCCC(C)C1CCC2(C)C3CCC4=C(C)C(=O)CCC4C3C(=O)CC12C)C(=O)OC1OC(COC2OC(CO)C(O)C(O)C2O)C(O)C(O)C1O (centres unmarked) [Compound 14, Siraitic acid II C] | 72 ± 2.18 | 430 ± 13.3 | 17.26% and 17.26 ± 3.14% | – | –
Cucurbitacin B [Compound 15] | – | – | 7.98% and 7.98 ± 1.11% | 50.59 ± 0.98 | –
COc1cc([C@@H]2Oc3c(OC)cc(/C=C/CO)cc3[C@H]2CO)ccc1O [Compound 2, 3,4′-dimethoxy-4,9,9′-trihydroxy-benzofuranolignan-7′-ene] | 63.43 ± 0.23 | 2275 ± 13.8 | 1.87 ± 0.77% | – | –
COc1cc(C[C@@H]2CO[C@@H](c3ccc(O)c(OC)c3)[C@@H]2CO)ccc1O [Compound 1, (-)-lariciresinol] | 78.2 ± 1.54 | – | 4.97 ± 0.15% | – | 1830 ± 31.3
CC(=O)OC(C)(C)CCC(=O)[C@](C)(O)[C@H]1[C@H](O)C[C@@]2(C)[C@@H]3CC=C4[C@@H](C[C@H](O)C(=O)C4(C)C)[C@]3(C)C(=O)C[C@]12C [Compound 16, 23,24-dihydrocucurbitacin B] | 27.5 ± 3.8 | – | 4.70 ± 0.76% | – | –
CC(=CCCC(C)C1CCC2(C)C3CCC4=C(C)C(=O)CCC4C3(C)C(=O)CC12C)C(=O)OC1OC(COC2OC(CO)C(O)C(O)C2O)C(O)C(O)C1O (centres unmarked) [Compound 9, Siraitic acid II G] | 53.1 ± 0.99 | 1581 ± 12.5 | 5.33 ± 2.11% | – | –
C/C(=C\CCC(C)C1CCC2(C)C3CCC45OCC3(C(=O)CC12C)C4CCC(O)C5C)C(=O)OC1OC(COC2OC(CO)C(O)C(O)C2O)C(O)C(O)C1O (centres unmarked) [Compound 11, Siraitic acid II A] | 50.6 ± 1.23 | 1240 ± 20.5 | 6.59 ± 0.91% | – | –
CC1=C2CCC3C(C)(C(=O)CC4(C)C(C(C)CC/C=C(\C)C(=O)OC5OC(COC6OC(CO)C(O)C(O)C6O)C(O)C(O)C5O)C(OC5OC(CO)C(O)C(O)C5O)CC34C)C2CCC1=O (centres unmarked) [Compound 4, Siraitic acid III E] | 36.74 ± 0.36 | – | 2.93 ± 0.72% | – | –
CC1=C2CCC3C(C)(C(=O)CC4(C)C(C(C)CC/C=C(\C)C(=O)OC5OC(CO)C(O)C(O)C5O)C(OC5OC(CO)C(O)C(O)C5O)CC34C)C2CCC1=O (centres unmarked) [Compound 6, Siraitic acid IIb E] | 42.4 ± 0.81 | – | 3.91 ± 0.17% | – | –
C/C(=C\CCC(C)C1CCC2(C)C3CCC45OCC3(C(=O)CC12C)C4CCC(=O)C5C)C(=O)OC1OC(COC2OC(CO)C(O)C(O)C2O)C(O)C(O)C1O (centres unmarked) [Compound 12, Siraitic acid II B] | 51.3 ± 0.83 | 1030 ± 36.9 | 6.65 ± 1.18% | – | –
CC(=O)OC(C)(C)CCC(=O)[C@](C)(O)C1[C@H](O)C[C@@]2(C)[C@@H]3CC=C4[C@@H](CC(O)[C@@H](O)C4(C)C)[C@]3(C)C(=O)C[C@]12C (some centres unmarked) [Compound 13, 23,24-dihydrocucurbitacin F-25-acetate] | 21.7 ± 0.58 | – | 1.31 ± 0.06% | – | –
CC(=O)OC(C)(C)CCC(=O)[C@](C)(O)C1C(O)C[C@@]2(C)[C@@H]3CC=C4[C@@H](CC(=O)[C@@H](O)C4(C)C)[C@]3(C)C(=O)C[C@]12C (some centres unmarked) [Compound 17, Dihydroisocucurbitacin B-25-acetate] | 23.7 ± 0.33 | – | 2.28 ± 0.44% | – | –
C/C(=C\CCC(C)C1CCC2(C)C3CC=C4C(CCC(OC5OC(COC6OC(CO)C(O)C(O)C6O)C(O)C(O)C5O)C4(C)C)C3(C)C(=O)CC12C)C(=O)OC1OC(COC2OC(CO)C(O)C(O)C2O)C(O)C(O)C1O (centres unmarked) [Compound 8, Siraitic acid IV H] | 23.4 ± 1.05 | – | 0.27 ± 0.18% | – | –
